# Test system: 565726-208-R1-J5-PDC complex spheroids, growth inhibition
# Assay: Anticancer human tumor 565726-208-R1-J5-PDC patient-derived pancreatic adenocarcinoma cell line growth inhibition [RAS]
# Conditions: for IC50: curve of first compound; for viability, T/C: stronger effect = lower value
# Procedure, shortened: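 Multi-cell-type spheroids: tumor cells plus HUVEC endothelial cells and mesenchymal stem cells. RAS-pathway inhibitors were combined with targeted agents, each dosed in half-log steps down from clinical Cmax, or from 10 microM when Cmax was unknown.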
# [1] = second compound 0.00316 µM, first compound 0.0316 µM
# [2] = second compound 0.00316 µM, first compound 0.1 µM
# [3] = second compound 0.00316 µM, first compound 0.316 µM
# [4] = second compound 0.00316 µM, first compound 1 µM
# [5] = second compound 0.00316 µM, first compound 3.16 µM
# [6] = second compound 0.00316 µM, first compound 10 µM
# [7] = second compound 0.01 µM, first compound 0.0316 µM
# [8] = second compound 0.01 µM, first compound 0.1 µM
# [9] = second compound 0.01 µM, first compound 0.316 µM
# [10] = second compound 0.01 µM, first compound 1 µM
# [11] = second compound 0.01 µM, first compound 3.16 µM
# [12] = second compound 0.01 µM, first compound 10 µM
# [13] = second compound 0.0316 µM, first compound 0.0316 µM
# [14] = second compound 0.0316 µM, first compound 0.1 µM
# [15] = second compound 0.0316 µM, first compound 0.316 µM
# [16] = second compound 0.0316 µM, first compound 1 µM
# [17] = second compound 0.0316 µM, first compound 3.16 µM
# [18] = second compound 0.0316 µM, first compound 10 µM
# [19] = second compound 0.1 µM, first compound 0.0316 µM
# [20] = second compound 0.1 µM, first compound 0.1 µM
# [21] = second compound 0.1 µM, first compound 0.316 µM
# [22] = second compound 0.1 µM, first compound 1 µM
# [23] = second compound 0.1 µM, first compound 3.16 µM
# [24] = second compound 0.1 µM, first compound 10 µM
# [25] = second compound 0.316 µM, first compound 0.0316 µM
# [26] = second compound 0.316 µM, first compound 0.1 µM
# [27] = second compound 0.316 µM, first compound 0.316 µM
# [28] = second compound 0.316 µM, first compound 1 µM
# [29] = second compound 0.316 µM, first compound 3.16 µM
# [30] = second compound 0.316 µM, first compound 10 µM
# [31] = second compound 1 µM, first compound 0.0316 µM
# [32] = second compound 1 µM, first compound 0.1 µM
# [33] = second compound 1 µM, first compound 0.316 µM
# [34] = second compound 1 µM, first compound 1 µM
# [35] = second compound 1 µM, first compound 3.16 µM
# [36] = second compound 1 µM, first compound 10 µM
# 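Note: spheroids exposed to compounds for seven days before readout.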
# 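Throughout, for viability, T/C: 100% = DMSO vehicle control viability.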
smiles,measurement,setting,value
CC(=O)OC12COC1CC(O)C1(C)C(=O)C(O)C3=C(C)C(OC(=O)C(O)C(NC(=O)OC(C)(C)C)c4ccccc4)CC(O)(C(OC(=O)c4ccccc4)C21)C3(C)C (stereo not drawn) + C=CC(=O)N1CCN(c2nc(OCC3CCCN3C)nc3c(F)c(-c4nc(N)cc(C)c4C(F)(F)F)c(Cl)cc23)C(C)C1,IC50,second compound 0.00316 µM,< 31.6 nM
same,IC50,second compound 0.01 µM,< 31.6 nM
same,IC50,second compound 0.0316 µM,< 31.6 nM
same,IC50,second compound 0.1 µM,< 31.6 nM
same,IC50,second compound 0.316 µM,< 31.6 nM
same,IC50,second compound 1 µM,< 31.6 nM
same,"viability, T/C",[1],22.4%
same,"viability, T/C",[2],20.6%
same,"viability, T/C",[3],22.6%
same,"viability, T/C",[4],19.4%
same,"viability, T/C",[5],30%
same,"viability, T/C",[6],37.1%
same,"viability, T/C",[7],25%
same,"viability, T/C",[8],21.8%
same,"viability, T/C",[9],21.1%
same,"viability, T/C",[10],23.5%
same,"viability, T/C",[11],32.6%
same,"viability, T/C",[12],47.7%
same,"viability, T/C",[13],31.6%
same,"viability, T/C",[14],26.6%
same,"viability, T/C",[15],24.9%
same,"viability, T/C",[16],21%
same,"viability, T/C",[17],29.5%
same,"viability, T/C",[18],44.8%
same,"viability, T/C",[19],26%
same,"viability, T/C",[20],23%
same,"viability, T/C",[21],26%
same,"viability, T/C",[22],19%
same,"viability, T/C",[23],27.7%
same,"viability, T/C",[24],42.8%
same,"viability, T/C",[25],21.1%
same,"viability, T/C",[26],26.6%
same,"viability, T/C",[27],22.4%
same,"viability, T/C",[28],24.9%
same,"viability, T/C",[29],28%
same,"viability, T/C",[30],45.9%
same,"viability, T/C",[31],34.8%
same,"viability, T/C",[32],24.1%
same,"viability, T/C",[33],22.1%
same,"viability, T/C",[34],26.4%
same,"viability, T/C",[35],34.4%
same,"viability, T/C",[36],50.1%
CCc1c2c(nc3ccc(O)cc13)-c1cc3c(c(=O)n1C2)COC(=O)[C@]3(O)CC + C=CC(=O)N1CCN(c2nc(OCC3CCCN3C)nc3c(F)c(-c4nc(N)cc(C)c4C(F)(F)F)c(Cl)cc23)C(C)C1,IC50,second compound 0.00316 µM,4.93 nM
same,IC50,second compound 0.01 µM,4.61 nM
same,IC50,second compound 0.0316 µM,5.78 nM
same,IC50,second compound 0.1 µM,5.53 nM
same,IC50,second compound 0.316 µM,3.96 nM
same,IC50,second compound 1 µM,5.1 nM
same,"viability, T/C","second compound 0.00316 µM, first compound 0.000949 µM",88.2%
same,"viability, T/C","second compound 0.00316 µM, first compound 0.003 µM",61.3%
same,"viability, T/C","second compound 0.00316 µM, first compound 0.00949 µM",34.5%
same,"viability, T/C","second compound 0.00316 µM, first compound 0.03 µM",23.3%
same,"viability, T/C","second compound 0.00316 µM, first compound 0.0949 µM",15.2%
same,"viability, T/C","second compound 0.00316 µM, first compound 0.3 µM",7.24%
same,"viability, T/C","second compound 0.01 µM, first compound 0.000949 µM",98.5%
same,"viability, T/C","second compound 0.01 µM, first compound 0.003 µM",58.2%
same,"viability, T/C","second compound 0.01 µM, first compound 0.00949 µM",33.8%
same,"viability, T/C","second compound 0.01 µM, first compound 0.03 µM",24.9%
same,"viability, T/C","second compound 0.01 µM, first compound 0.0949 µM",14.3%
same,"viability, T/C","second compound 0.01 µM, first compound 0.3 µM",8.62%
same,"viability, T/C","second compound 0.0316 µM, first compound 0.000949 µM",121%
same,"viability, T/C","second compound 0.0316 µM, first compound 0.003 µM",68.4%
same,"viability, T/C","second compound 0.0316 µM, first compound 0.00949 µM",35.4%
same,"viability, T/C","second compound 0.0316 µM, first compound 0.03 µM",21.1%
same,"viability, T/C","second compound 0.0316 µM, first compound 0.0949 µM",13.2%
same,"viability, T/C","second compound 0.0316 µM, first compound 0.3 µM",8.94%
same,"viability, T/C","second compound 0.1 µM, first compound 0.000949 µM",134%
same,"viability, T/C","second compound 0.1 µM, first compound 0.003 µM",64.1%
same,"viability, T/C","second compound 0.1 µM, first compound 0.00949 µM",39.3%
same,"viability, T/C","second compound 0.1 µM, first compound 0.03 µM",18.2%
same,"viability, T/C","second compound 0.1 µM, first compound 0.0949 µM",15.1%
same,"viability, T/C","second compound 0.1 µM, first compound 0.3 µM",8.7%
same,"viability, T/C","second compound 0.316 µM, first compound 0.000949 µM",113%
same,"viability, T/C","second compound 0.316 µM, first compound 0.003 µM",53%
same,"viability, T/C","second compound 0.316 µM, first compound 0.00949 µM",33.1%
same,"viability, T/C","second compound 0.316 µM, first compound 0.03 µM",21.1%
same,"viability, T/C","second compound 0.316 µM, first compound 0.0949 µM",13.3%
same,"viability, T/C","second compound 0.316 µM, first compound 0.3 µM",8.96%
same,"viability, T/C","second compound 1 µM, first compound 0.000949 µM",130%
same,"viability, T/C","second compound 1 µM, first compound 0.003 µM",59.1%
same,"viability, T/C","second compound 1 µM, first compound 0.00949 µM",35%
same,"viability, T/C","second compound 1 µM, first compound 0.03 µM",32.9%
same,"viability, T/C","second compound 1 µM, first compound 0.0949 µM",18.6%
same,"viability, T/C","second compound 1 µM, first compound 0.3 µM",11.7%
NC1c2ccccc2OC12CCN(c1cnc3c(N4CCCc5ncccc54)n[nH]c3n1)CC2 (stereo not drawn) + C=CC(=O)N1CCN(c2nc(OCC3CCCN3C)nc3c(F)c(-c4nc(N)cc(C)c4C(F)(F)F)c(Cl)cc23)C(C)C1,IC50,second compound 0.00316 µM,> 10000 nM
same,IC50,second compound 0.01 µM,> 10000 nM
same,IC50,second compound 0.0316 µM,> 10000 nM
same,IC50,second compound 0.1 µM,> 10000 nM
same,IC50,second compound 0.316 µM,> 10000 nM
same,IC50,second compound 1 µM,> 10000 nM
same,"viability, T/C",[1],72.7%
same,"viability, T/C",[2],94.8%
same,"viability, T/C",[3],66.4%
same,"viability, T/C",[4],59.4%
same,"viability, T/C",[5],75.9%
same,"viability, T/C",[6],106%
same,"viability, T/C",[7],83.5%
same,"viability, T/C",[8],121%
same,"viability, T/C",[9],70.8%
same,"viability, T/C",[10],59.3%
same,"viability, T/C",[11],79.5%
same,"viability, T/C",[12],102%
same,"viability, T/C",[13],122%
same,"viability, T/C",[14],135%
same,"viability, T/C",[15],61.5%
same,"viability, T/C",[16],70.8%
same,"viability, T/C",[17],85%
same,"viability, T/C",[18],92.4%
same,"viability, T/C",[19],136%
same,"viability, T/C",[20],131%
same,"viability, T/C",[21],88.6%
same,"viability, T/C",[22],56.3%
same,"viability, T/C",[23],55%
same,"viability, T/C",[24],93.7%
same,"viability, T/C",[25],108%
same,"viability, T/C",[26],134%
same,"viability, T/C",[27],59.7%
same,"viability, T/C",[28],64.7%
same,"viability, T/C",[29],58.6%
same,"viability, T/C",[30],104%
same,"viability, T/C",[31],99.5%
same,"viability, T/C",[32],109%
same,"viability, T/C",[33],69.3%
same,"viability, T/C",[34],61.8%
same,"viability, T/C",[35],71.4%
same,"viability, T/C",[36],106%
Nc1ccn(C2OC(CO)C(O)C2(F)F)c(=O)n1 (stereo not drawn) + C=CC(=O)N1CCN(c2nc(OCC3CCCN3C)nc3c(F)c(-c4nc(N)cc(C)c4C(F)(F)F)c(Cl)cc23)C(C)C1,IC50,second compound 0.00316 µM,94.9 nM
same,IC50,second compound 0.01 µM,93.4 nM
same,IC50,second compound 0.0316 µM,> 1000 nM
same,IC50,second compound 0.1 µM,230 nM
same,IC50,second compound 0.316 µM,88.8 nM
same,IC50,second compound 1 µM,1000 nM
same,"viability, T/C","second compound 0.00316 µM, first compound 0.00316 µM",89.3%
same,"viability, T/C","second compound 0.00316 µM, first compound 0.01 µM",151%
same,"viability, T/C",[1],76.5%
same,"viability, T/C",[2],54.6%
same,"viability, T/C",[3],52.6%
same,"viability, T/C",[4],39%
same,"viability, T/C","second compound 0.01 µM, first compound 0.00316 µM",113%
same,"viability, T/C","second compound 0.01 µM, first compound 0.01 µM",149%
same,"viability, T/C",[7],84.9%
same,"viability, T/C",[8],48%
same,"viability, T/C",[9],50.5%
same,"viability, T/C",[10],44.8%
same,"viability, T/C","second compound 0.0316 µM, first compound 0.00316 µM",148%
same,"viability, T/C","second compound 0.0316 µM, first compound 0.01 µM",160%
same,"viability, T/C",[13],77.1%
same,"viability, T/C",[14],59.4%
same,"viability, T/C",[15],48.9%
same,"viability, T/C",[16],49%
same,"viability, T/C","second compound 0.1 µM, first compound 0.00316 µM",156%
same,"viability, T/C","second compound 0.1 µM, first compound 0.01 µM",134%
same,"viability, T/C",[19],89.5%
same,"viability, T/C",[20],58.1%
same,"viability, T/C",[21],47.5%
same,"viability, T/C",[22],46.3%
same,"viability, T/C","second compound 0.316 µM, first compound 0.00316 µM",139%
same,"viability, T/C","second compound 0.316 µM, first compound 0.01 µM",134%
same,"viability, T/C",[25],72.7%
same,"viability, T/C",[26],46.4%
same,"viability, T/C",[27],52.7%
same,"viability, T/C",[28],41.5%
same,"viability, T/C","second compound 1 µM, first compound 0.00316 µM",153%
same,"viability, T/C","second compound 1 µM, first compound 0.01 µM",142%
same,"viability, T/C",[31],82.3%
same,"viability, T/C",[32],58.3%
same,"viability, T/C",[33],55.3%
same,"viability, T/C",[34],45.6%
